Reference: US20100196476A1, “PROCESS FOR THE PREPARATION AND PHARMACEUTICAL FORMULATIONS FOR 4-QUINOLINONES AND QUINOLINES AND USE THEREOF” (FUNDACAO UNIVERSIDADE FEDERAL DE SAO CARLOS, priority 2007, published 2010)

What was measured:
[1] = test system: coagulant serine proteases; assay: initial screening, coagulant activity of snake venoms; format: biochemical, Bothrops jararacussu, B. moojeni, B. alternatus; conditions: first screening assay, FIG. 2
Description: (§1) This screening was for the venoms of the Bothrops jararacussu, B. moojeni, B. alternatus and B. jararacussu BjussuMP-I snakes to determine promising compounds.
(§2) Aliquots of plasma (0.2 mL) were incubated with venom or venom/inhibitor (50 μL) in varying proportions (m/m) during a period of 30 minutes at 37° C. and the coagulation time was verified. The control tubes included plasma incubated with phosphate buffered saline solution (PBS)+calcium or dimethyl sulphoxide or only the compound.

[2] = test system: venoms and isolated PLA2s; assay: phospholipase A2 activity (indirect haemolytic); format: biochemical; conditions: induced by venoms of B. jararacussu and C. durissus terrificus and isolated PLA2s
Description: (§3) Indirect haemolytic activity is tested using agarose-erythrocyte-egg yolk gel as a substrate. The compounds are tested following incubation with the pure venoms or PLA2 in varying ratios (m/m).

[3] = test system: basic Asp49 PLA2s (BthTX-II and CB); assay: phospholipase A2 activity, basic Asp49 PLA2s; format: biochemical, B. jararacussu and C. d. terrificus; conditions: compared with pure venoms and acid isoform Asp49 BthA-1-PLA2, FIG. 5C
Description: as §3

[4] = test system: venom of B. jararacussu, BjussuSP-I and BjussuMP-I; assay: fibrinogenolytic activity on bovine fibrinogen, SDS-PAGE (FIG. 4A); format: biochemical; conditions: enzymes incubated with inhibitor 30 minutes at 37° C., 1:10 by mass
Description: Lanes: 1—Fibrinogen+venom of B. jararacussu (4 μg)+2 (40 μg); 2—Fibrinogen+enzyme BjussuSP-I (2 μg)+2 (20 μg); 3—Fibrinogen+BjussuMP-I (2 μg)+2 (20 μg); 4—Fibrinogen control. The enzymes were incubated together with 2 for 30 minutes at 37° C. The results are expressed by the mean±S.D (n=3). (B): Interaction between the venom of the B. jararacussu snake and 2. Samples containing venom/toxin (20 μg) and the […] (600 μg) were incubated for 30 minutes at 37° C. at a ratio of 1:30 (w/w). Lanes: 1—BthTX-I+2; 2—BthTX-II+2; 3—venom of B. jararacussu+2; 4—only BthTX-I; 5—only BthTX-II; 6—only the venom of B. jararacussu.

[5] = test system: venom of Bothrops and the isolated metalloprotease; assay: haemorrhage induced by Bothrops venoms and isolated metalloprotease (FIG. 3A); format: in vivo; conditions: venom of Bothrops and Crotalus snakes and isolated metalloprotease
Description: FIG. 3A: Effect of compound 2 on the haemorrhage induced by the venom of Bothrops and the isolated metalloprotease. FIG. 3B: Effect of compound 2 on the proteolytic activity induced by the venom of Bothrops and the isolated metalloprotease. FIG. 3C: Effect of the coagulant activity of compound 2 induced by the venoms of Bothrops and Crotalus and the isolated serine protease. The results are expressed by the mean±standard deviation (SD) (n=6).
Therefore, further assays were performed to determine the efficiency of compound 2 for various other activities. FIG. 3A presents the effects of 2 on haemorrhages induced by the different venoms of the Bothrops genus snakes and an isolated metalloprotease.

[6] = test system: venoms and isolated PLA2s; assay: oedema inducing activity in mice; format: in vivo; conditions: induced by venoms of B. jararacussu and C. durissus terrificus and isolated PLA2s
Description: The oedemas are induced by the direct injection of venom (20 μg) and purified proteins (20 μg) into the right leg of male Swiss mice (18-22 g). Inhibition activity is verified incubating the venom or isolated protein with the inhibitor in varying concentrations (m/m). The control groups are injected with 50 μL of phosphate buffered saline solution (PBS, pH=7.2) alone, dimethyl sulphoxide (DMSO) or the compounds. Oedema progression is assessed through measurement of the […] using a pachymeter (Mitutoyo, Japan) at intervals of 30 and 60 minute after injection.

[7] = test system: snake venoms and isolated serine protease; assay: coagulant activity in human plasma (FIG. 3C); format: biochemical, Bothrops and Crotalus; conditions: induced by snake venoms and isolated serine protease
Description: as §2

[8] = test system: haemorrhagic metalloprotease of the venoms; assay: initial screening, haemorrhagic metalloprotease of the venoms; parameters: species or system Bothrops jararacussu, B. moojeni, B. alternatus; conditions: first screening assay, FIG. 2
Excerpt: as §1

[9] = test system: venoms and isolated PLA2s; assay: myotoxic activity in mice (plasma CK); format: in vivo; conditions: induced by venoms of B. jararacussu and C. durissus terrificus and isolated PLA2s
[10] = test system: venom of B. jararacussu (BjussuSP-I); assay: coagulant activity, B. jararacussu venom; format: biochemical; conditions: FIG. 3C
Description: as §2

[11] = test system: snake venoms and isolated metalloprotease; assay: proteolytic activity in casein (FIG. 3B); format: biochemical, Bothrops; conditions: induced by snake venoms and isolated metalloprotease
[12] = molecular target: Class I metalloprotease neuwiedase (Bothrops pauloensis, UniProt Q9I9R4); format: biochemical, B. neuwiedi
[13] = test system: venom of C. d. terrificus (gyroxin); assay: coagulant activity, C. d. terrificus venom; format: biochemical; conditions: FIG. 3C
Description: as §2

Sequence of Class I metalloprotease neuwiedase (Q9I9R4 whole entry, looked up): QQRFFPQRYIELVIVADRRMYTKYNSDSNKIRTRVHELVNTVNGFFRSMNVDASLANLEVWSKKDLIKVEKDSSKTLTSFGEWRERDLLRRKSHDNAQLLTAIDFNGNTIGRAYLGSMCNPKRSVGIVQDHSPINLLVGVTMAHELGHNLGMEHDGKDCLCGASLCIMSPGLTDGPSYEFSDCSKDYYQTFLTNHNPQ

## O=c1cc(CO)[nH]c2ccccc12 [Compound 1, 2-hydroxymethyl-1,4-dihydro-4-quinolinone]
[1]
  inhibition of coagulant serine proteases: partial inhibition

## O=C(O)c1cn(C2CC2)c2cc(N3CCNCC3)c(F)cc2c1=O [Compound 13, 1-ciclopropyl-6-fluoro-1,4-dihydro-4-oxo-7-(1-piperazinyl)-3-quinolinecarboxylic acid, reference compound]
[1]
  inhibition of coagulant serine proteases: partial inhibition

## CCOc1cc(CO)nc2ccc(OC)cc12 [Compound 10, 4-ethoxy-2-hydroxymethyl-6-methoxyquinoline]
[1]
  inhibition of coagulant serine proteases: partial inhibition

## COc1ccc2[nH]c(CO)cc(=O)c2c1 [Compound 2, 2-hydroxymethyl-6-methoxy-1,4-dihydro-4-quinolinone]
[2]
  effect on activity for phospholipase: partially reduced
[3]
  neutralising PLA2 activity: more efficient
[4]
  inhibition of fibrinogenolytic activity: inhibition
[5]
  effect on haemorrhages induced by venom: inhibits
[6]
  effect on oedema: partially reduced
[7]
  inhibition of coagulant activity in human plasma: significantly inhibits
[8]
  inhibition of the haemorrhagic metalloprotease of the venoms: potential of inhibiting
[9]
  effect on myotoxicity: partially reduced
[10]
  action on coagulation: powerful coagulation action
[11]
  inhibition of proteolytic activity on casein: significantly inhibits
[1]
  inhibition of coagulant serine proteases: partial inhibition
[12]
  inhibition of proteolytic activity: approximately 67%
[13]
  action on coagulation: powerful coagulation action

## CCOCc1cc(OCC)c2cc(OC)ccc2n1 [Compound 11, 4-ethoxy-2-ethoxymethyl-6-methoxyquinoline]
[1]
  inhibition of coagulant serine proteases: partial inhibition
